In ChEMBL document CHEMBL1152101, “Boric acid effect ont he hydrolysis of 4-nitrophenyl 2,3-dihydroxybenzoate: mimic of borate inhibition of serine proteases” (Bioorg Med Chem Lett, 1993):

Assays:
[1] = Tested for hydrolysis in presence of boric acid, dissociation constant was evaluated at the pH 8.5(Apparent inhibition constant); assay type: ADME
[2] = Tested for hydrolysis in presence of boric acid, dissociation constant was evaluated at the pH 9.5(Apparent inhibition constant); assay type: ADME
[3] = Tested for hydrolysis in presence of phenylboronic acid, dissociation constant was evaluated at the pH 9.5(Apparent inhibition constant); assay type: ADME
[4] = Hydrolysis rate constant was determined; assay type: ADME
[5] = Tested for hydrolysis in presence of boric acid by UV spectrophotometry, dissociation constant was evaluated at the pH < 8; assay type: ADME
[6] = Tested for hydrolysis in presence of boric acid, rate constant was evaluated at the pH 8.5; assay type: ADME; conditions: buffer
[7] = Tested for hydrolysis in presence of boric acid, rate constant was evaluated at the pH 9.5; assay type: ADME; conditions: buffer
[8] = pKa value was determined; assay type: physicochemical
Chymotrypsinogen A [9] = molecular target: T1, Chymotrypsinogen A (Bos taurus, UniProt P00766); test: Tested for inhibition of hydrolysis in presence of alpha-chymotrypsin and […](Apparent inhibition constant)
Chymotrypsinogen A [10] = molecular target: T1, Chymotrypsinogen A; test: Tested for inhibition of hydrolysis in presence of alpha-chymotrypsin and phenylboronic acid(Apparent inhibition constant)
[11] = Tested for hydrolysis in presence of phenylboronic acid, rate constant was evaluated at the pH 9.5; assay type: ADME; conditions: buffer

Ki [1]: 380 µM
Ki [2]: 230 µM
Ki [3]: 250 µM
K1 [4]: 0.000033 s⁻¹
K2 [4]: 0.00026 s⁻¹
KB [5]: 0.00005 s⁻¹
KB [6]: 0.000018 s⁻¹
KB [7]: 0.000022 s⁻¹
pKa [8]: 8.8
Ki (Chymotrypsinogen A [9]): 40000 µM
Ki (Chymotrypsinogen A [10]): 200 µM
KB [11]: 0.000017 s⁻¹
SMILES: O=C(Oc1ccc([N+](=O)[O-])cc1)c1cccc(O)c1O
